Structures can show the parent of a compound that is named as a salt. Where two headings read alike, the source gives them in different places.
What was measured:
Format in all cases: physicochemical
[1] = Solubility measurements of Forms I and II in aqueous acetonitrile (HPLC, equilibrium plateau); conditions: for solubility: aqueous acetonitrile; for Thermodynamic relationship between forms I and II crystals: based on solubility measurements in aqueous acetonitrile
Description: Solubility of Forms I and II was measured at various temperatures between 5° C. and 45° C. in aqueous acetonitrile in which water concentration was from 0 to 10 v/v % respectively.
Solubility was measured according to the following procedure. Form I or II crystals and an aqueous acetonitrile were added to a glass vessel. The mixture was stirred with a Teflon-coated magnetic stirrer bar at a defined temperature controlled with aluminum block. The liquid phase was sampled periodically, and the concentration of the compound was measured with high performance liquid chromatography (HPLC). Solid material was also collected at the same time to identify the crystal form using XRPD. In analyzing the time course of the change in concentration, that plateau zone was identified as an equilibrium condition, and the mean value of these concentrations was defined as “solubility” under that condition.

[2] = Solubility in water (shaking 20 minutes, HPLC UV 210 nm); conditions: for solubility at 20 min: thermodynamic from solid; for Solubility in water: hydrochloride monohydrate
Description: Excess amount of the samples, Forms I and II, were suspended in water, and were equilibrated by shaking for 20 minutes at 25° C. or 37° C., respectively. The amounts of dissolved the compound were determined using a Waters alliance HPLC system 2695, detected by UV 210 nm.

[3] = Stability under storage conditions (temperature/humidity); conditions: 11% RH at 40° C., 75% RH at 40° C., 11% RH at 60° C. and 75% RH at 60° C. after 2 weeks
Text: (§1) The crystalline Forms I and II are very stable in many aspects. Both forms are stable under storage conditions. […] Both forms are also stable under physical stress. The XRD charts of both forms were not changed after compression experiments with a planar pestle (1000 kgf/cm^2).

[4] = Stability under photo storage conditions; conditions: light (D65 lamp) of 1.2 million Lux hours at 25° C.
Text: as §1

[5] = Stability under physical stress (compression with planar pestle, XRD); conditions: 1000 kgf/cm^2
Text: as §1

Hygroscopicity (DVS-1) = conditions: between 10% RH and 90% RH at 25° C.; for Hygroscopicity: hydrochloride monohydrate
Description: The hygroscopicity of Forms I and II were investigated using a Surface measurement systems, DVS-1, between 10% RH and 90% RH at 25° C.

[6] = Crystallization behavior in 98 v/v % aqueous acetonitrile (XRPD); conditions: seeded experiments
Description: Form I crystals were added to 98 v/v % aqueous acetonitrile in a glass vessel. Next, 98 v/v % aqueous acetonitrile was added to make the mixture 40 v/w times relative to the Form I crystal. The mixture was stirred with Teflon-coated magnetic stirrer bar and heated to 80° C. with aluminum block. After the crystals were dissolved, the mixture was cooled to a determined temperature at the rate of 30° C. per hour. After a determined holding time, Form I crystals were added as seed crystals according to object of an experiment. Precipitates were sampled periodically and analyzed by XRPD.

[7] = Transformation behavior in 98 v/v % aqueous acetonitrile (seeded slurry, XRPD)
Description: Form I crystals and 40 v/w times volume of 98 v/v % aqueous acetonitrile were added to a glass vessel. The mixture was stirred with Teflon-coated magnetic stirrer bar and heated to 80° C. with aluminum block. After dissolved, solution was cooled to 5° C. at the rate of 30° C. per hour. To the slurry of Form X, 10 w/w % of Form I crystals were added as seed crystals at 5° C., then controlled to a certain temperature. Samples of solid material were analyzed by XRPD on a periodic basis.

[8] = Transformation behavior in 97 v/v % aqueous acetonitrile (XRPD)
Description: Form X crystals and 97 v/v % aqueous acetonitrile were added to a glass vessel. The mixture was stirred with Teflon-coated magnetic stirrer bar at the temperature controlled with aluminum block. Solid component was sampled periodically and analyzed by XRPD to determine the crystal form.

What does the source list for O=C(N[C@H]1CN2CCC1CC2)c1cc2cccc(Cl)c2s1 [Form I, (R)-7-chloro-N-(quinuclidin-3-yl)benzo[b]thiophene-2-carboxamide hydrochloride monohydrate]?
solubility ([1]; 5 °C, organic solvent or mixture, thermodynamic from solid, water concentration 0 v/v %, 5 °C, read-out: Solubility): 1 mg/mL; solubility ([1]; 5 °C, organic solvent or mixture, thermodynamic from solid, water concentration 2 v/v %, 5 °C, read-out: Solubility): 2.4 mg/mL; solubility ([1]; 5 °C, organic solvent or mixture, thermodynamic from solid, water concentration 6 v/v %, 5 °C, read-out: Solubility): 12.8 mg/mL; solubility ([1]; 12.5 °C, organic solvent or mixture, thermodynamic from solid, water concentration 3.5 v/v %, 12.5 °C, read-out: Solubility): 5.4 mg/mL; solubility ([1]; 12.5 °C, organic solvent or mixture, thermodynamic from solid, water concentration 8.5 v/v %, 12.5 °C, read-out: Solubility): 27.6 mg/mL; solubility ([1]; 25 °C, organic solvent or mixture, thermodynamic from solid, water concentration 0 v/v %, 25 °C, read-out: Solubility): 1.3 mg/mL; solubility ([1]; 25 °C, organic solvent or mixture, thermodynamic from solid, water concentration 2 v/v %, 25 °C, read-out: Solubility): 4.1 mg/mL; solubility ([1]; 25 °C, organic solvent or mixture, thermodynamic from solid, water concentration 6 v/v %, 25 °C, read-out: Solubility): 17.1 mg/mL; solubility ([1]; 25 °C, organic solvent or mixture, thermodynamic from solid, water concentration 10 v/v %, 25 °C, read-out: Solubility): 47.5 mg/mL; solubility ([1]; 37.5 °C, organic solvent or mixture, thermodynamic from solid, water concentration 3.5 v/v %, 37.5 °C, read-out: Solubility): 10 mg/mL; solubility ([1]; 37.5 °C, organic solvent or mixture, thermodynamic from solid, water concentration 8.5 v/v %, 37.5 °C, read-out: Solubility): 44.4 mg/mL; solubility ([1]; 45 °C, organic solvent or mixture, thermodynamic from solid, water concentration 2 v/v %, 45 °C, read-out: Solubility): 8.7 mg/mL; solubility ([1]; 45 °C, organic solvent or mixture, thermodynamic from solid, water concentration 6 v/v %, 45 °C, read-out: Solubility): 27.2 mg/mL; solubility ([1]; 45 °C, organic solvent or mixture, thermodynamic from solid, water concentration 10 v/v %, 45 °C, read-out: Solubility): 71.6 mg/mL; Thermodynamic relationship between forms I and II crystals [1]: enantiotropy; solubility at 20 min ([2]; 25 °C): 39 mg/mL; solubility at 20 min ([2]; 37 °C): 90 mg/mL; Degradation products under storage conditions [3]: No degradation products; Degradation products under photo storage conditions [4]: no degradation products; XRD chart after compression [5]: not changed; Hygroscopicity (Hygroscopicity (DVS-1)): no hygroscopicity; Relative stability of Form I versus Form X [6]: more stable than Form X regardless of temperature; Relative stability of Form I versus Form X [7]: more stable than Form X regardless of temperature; Relative stability of Form I versus Form X [8]: more stable than Form X regardless of temperature

With O=C(N[C@H]1CN2CCC1CC2)c1cc2cccc(Cl)c2s1 [Form II, (R)-7-chloro-N-(quinuclidin-3-yl)benzo[b]thiophene-2-carboxamide hydrochloride monohydrate] as the molecule, how does the solubility ([1]; 5 °C, organic solvent or mixture, thermodynamic from solid, water concentration 10 v/v %, 5 °C, read-out: Solubility) read?
The solubility was 29.7 mg/mL.

What about the solubility ([1]; water concentration 2 v/v %, 5 °C, hydrochloride monohydrate) of the same molecule?
The solubility was 2.6.

And the solubility ([1]; water concentration 2 v/v %, 25 °C, hydrochloride monohydrate)?
The solubility was 4.7.

And the solubility ([1]; water concentration 3.5 v/v %, 12.5 °C, hydrochloride monohydrate)?
The solubility was 5.7.

What about the solubility ([1]; water concentration 6 v/v %, 5 °C, hydrochloride monohydrate) of the same molecule?
Its solubility is 11.2.

What about the solubility ([1]; water concentration 6 v/v %, 25 °C, hydrochloride monohydrate) of the same molecule?
The solubility was 16.7.

What about the solubility ([1]; water concentration 6 v/v %, 45 °C, hydrochloride monohydrate) of the same molecule?
Its solubility is 29.6.

What about the solubility ([1]; water concentration 8.5 v/v %, 12.5 °C, hydrochloride monohydrate) of the same molecule?
Its solubility is 25.1.

What about the solubility ([1]; water concentration 8.5 v/v %, 37.5 °C) of the same molecule?
Its solubility is 44.4.

What about the solubility ([1]; water concentration 10 v/v %, 25 °C, hydrochloride monohydrate) of the same molecule?
Its solubility is 44.6.

And the solubility ([1]; water concentration 10 v/v %, 45 °C, hydrochloride monohydrate)?
Its solubility is 74.5.

And the “Thermodynamic relationship between forms I and II crystals” value [1]?
The value was “enantiotropy”.

What about the Solubility in water ([2]; 25° C.) of the same molecule?
Its Solubility in water is 30 mg/mL.

And the Solubility in water ([2]; 37° C.)?
The Solubility in water was 54 mg/mL.

And the “Degradation products under storage conditions” value [3]?
Its value is “No degradation products”.

And the “Degradation products under photo storage conditions” value [4]?
The value was “no degradation products”.

And the “XRD chart after compression” value [5]?
Its value is “not changed”.

What about the “Channel water absorbed and desorbed” value (Hygroscopicity (DVS-1)) of the same molecule?
The value was “ca. 1 mol”.

And the “Water value increased and decreased by absorption and desorption” value (Hygroscopicity (DVS-1))?
The value was “approximately 4%”.

What about the Hygroscopicity (Hygroscopicity (DVS-1)) of the same molecule?
The Hygroscopicity was “there was a hygroscopicity”.

— patent US9550767B2, “Crystalline form of (R)-7-chloro-N-(quinuclidin-3-yl)benzo[b]thiophene-2-carboxamide hydrochloride monohydrate” (Forum Pharmaceuticals, Inc., priority 2010, dated 2017)
